In patent publication US11684614B2, “Formulations of hydroxypyridonate actinide/lanthanide decorporation agents” (priority 2017, dated 2023):

Experiment: Repeated-treatment efficacy for removing an intravenous dose of 238Pu (excretion, tissue retention, clinical observations), female and male arms
Format: in vivo, Swiss-Webster mice
Details: male mice; for 238Pu percent increase in excretion, Total Excretion / 238Pu percent increase in excretion, Total Feces / 238Pu percent increase in excretion, Total Urine: over untreated control group; for ^238Pu percent tissue reduction, GI Trace / ^238Pu percent tissue reduction, Kidney / ^238Pu percent tissue reduction, Liver / ^238Pu percent tissue reduction, Soft Tissue / ^238Pu percent tissue reduction, Total Body / ^238Pu percent tissue reduction, Total Bone / ^238Pu percent tissue reduction, GI Tract: vs untreated control group
Protocol: The objective of this study was to characterize the efficacy of 3,4,3-L1(1,2-HOPO) at enhancing elimination from an internal plutonium burden in female and male Swiss-Webster mice administered a soluble citrate complex of ^238Pu and treated multiple times, starting at 24 hours after the exposure. Efficacy was evaluated by comparing the tissue contents, urinary and fecal excretions of ^238Pu in treated animals versus untreated animals.
The medical countermeasure 3,4,3-L1(1,2-HOPO) was administered parenterally (ip) or orally (po) via consecutive injections or gavages (six daily or twelve twice daily) starting at 24 hours post contamination at the following four selected doses: 30 μmol/kg ip, 150 μmol/kg po, 300 μmol/kg po, and 600 μmol/kg po (equivalent to respective approximate human doses range of […], using the accepted conversion system of mouse doses into human equivalent doses—HED—based on body surface area). Oral doses also included the permeability enhancer selected during formulation development work.
• Challenge isotope: ^238Pu • Challenge dose: 25 nCi (i.e., approximately 0.8 μCi/kg) • Route of contamination: Intravenous (iv) tail-vein • Route of treatment: Intraperitoneal Injection (ip) or Oral (po) • Frequency of treatment: Multiple (once- or twice-daily for 6 days) doses, starting 24 hr postcontamination • Treatment dose calculation: Dose calculations (mg/kg or μmol/kg) for the decorporation agent were based on the individual body weight measured after contamination. • Study Duration: 11 days, in-life
c. […] Test article and control dose formulations were prepared within 1 day of dose administration, by weighing out the appropriate amount of test article, dispersing in vehicle. For ip solutions, the test article was used alone, while for oral suspensions, a mixture of test article and excipient (90:10, w:w) was used. The pH was adjusted to 7.0-7.4 for ip administration and 5.0-5.5 for oral administration with sterile NaOH. Dose formulations were prepared at room temperature and filter-sterilized. • Storage: 2-8° C.; refrigerated; protected from light. • Characterization: The concentration of each test article formulation was verified by high-performance liquid chromatography-mass spectrometry. • Test Article Handling: Test, reference, and control article formulations were handled with the use of eye protection, gloves, and a protective laboratory coat. • Correct Dose Assurance: The test article was weighed with calibrated balances. The administration of each dose formulation was properly documented, and the amount administered to each animal recorded.
e. Experimental Procedures (In-Life Evaluations and Euthanasia) • Contamination: Single administration by intravenous (iv) tail-vein injection (0.2 mL injection volume) under isoflurane anesthesia. Three standard 0.2 mL injections were performed into polyethylene bottles and pre-loaded with aliquots of concentrated nitric acid on each injection day. Six female and six male mice were culled for necropsy 1 hr post-contamination and were used as standards. A11 standards were processed and counted together with the final samples to allow verification of the contamination dose. • Dose Administration: Single administration by intraperitoneal injection (ip) or oral gavage (po) under isoflurane anesthesia. • Mortality/Morbidity: Assessed at least once daily. • Clinical Observations: Recorded once daily (4 hr post-dose on day of treatment), or more often as clinical signs warranted. […]

[1] = 30 μmol/kg, IP, 11-day necropsy
[2] = 150 μmol/kg, 2 doses PO, 7-day necropsy
[3] = 300 μmol/kg, 1 dose PO, 7-day necropsy
[4] = 300 μmol/kg, 1 dose PO, 11-day necropsy
[5] = 300 μmol/kg, 2 doses PO, 7-day necropsy
[6] = 300 μmol/kg, PO, 11-day necropsy
[7] = 600 μmol/kg, 1 dose PO, 7-day necropsy
[8] = 600 μmol/kg, 1 dose PO, 11-day necropsy
[9] = 600 μmol/kg, PO, 11-day necropsy
[10] = 600 μmol/kg, dose PO, 7-day necropsy

SMILES: O=C(NCCCN(CCCCN(CCCNC(=O)c1cccc(=O)n1O)C(=O)c1cccc(=O)n1O)C(=O)c1cccc(=O)n1O)c1cccc(=O)n1O [Formulation 343]
- ^238Pu excretion, Total Excretion, Avg [1]: 79.89 percent recovered dose
- ^238Pu excretion, Total Feces, Avg [1]: 48.24 percent recovered dose
- ^238Pu excretion, Total Urine, Avg [1]: 31.65 percent recovered dose
- ^238Pu retention, GI Tract, Avg [1]: 0.53 percent recovered dose
- ^238Pu retention, Kidney, Avg [1]: 0.12 percent recovered dose
- ^238Pu retention, Liver, Avg [1]: 2.42 percent recovered dose
- ^238Pu retention, Soft Tissue, Avg [1]: 1.14 percent recovered dose
- ^238Pu retention, Total Body, Avg [1]: 20.11 percent recovered dose
- ^238Pu retention, Total Bone, Avg [1]: 15.90 percent recovered dose
- 238Pu percent increase in excretion, Total Excretion [1]: 168.28%
- 238Pu percent increase in excretion, Total Feces [1]: 188.96%
- 238Pu percent increase in excretion, Total Urine [1]: 144.22%
- ^238Pu percent tissue reduction, GI Trace [1]: 72.95%
- ^238Pu percent tissue reduction, Kidney [1]: 65.35%
- ^238Pu percent tissue reduction, Liver [1]: 85.55%
- ^238Pu percent tissue reduction, Soft Tissue [1]: 67.92%
- ^238Pu percent tissue reduction, Total Body [1]: 61.72%
- ^238Pu percent tissue reduction, Total Bone [1]: 46.83%
- ^238Pu excretion, Total Excretion, Avg [2]: 53.58 percent recovered dose
- ^238Pu excretion, Total Feces, Avg [2]: 30.26 percent recovered dose
- ^238Pu excretion, Total Urine, Avg [2]: 23.32 percent recovered dose
- ^238Pu retention, GI Tract, Avg [2]: 1.67 percent recovered dose
- ^238Pu retention, Kidney, Avg [2]: 0.31 percent recovered dose
- ^238Pu retention, Liver, Avg [2]: 21.40 percent recovered dose
- ^238Pu retention, Soft Tissue, Avg [2]: 3.16 percent recovered dose
- ^238Pu retention, Total Body, Avg [2]: 46.42 percent recovered dose
- ^238Pu retention, Total Bone, Avg [2]: 19.87 percent recovered dose
- 238Pu percent increase in excretion, Total Excretion [2]: 149.61%
- 238Pu percent increase in excretion, Total Feces [2]: 174.63%
- 238Pu percent increase in excretion, Total Urine [2]: 126.15%
- ^238Pu percent tissue reduction, GI Tract [2]: −17.71%
- ^238Pu percent tissue reduction, Kidney [2]: −4.19%
- ^238Pu percent tissue reduction, Liver [2]: 18.09%
- ^238Pu percent tissue reduction, Soft Tissue [2]: −5.31%
- ^238Pu percent tissue reduction, Total Body [2]: 27.68%
- ^238Pu percent tissue reduction, Total Bone [2]: 40.39%
- ^238Pu excretion, Total Excretion, Avg [3]: 64.11 percent recovered dose
- ^238Pu excretion, Total Feces, Avg [3]: 40.12 percent recovered dose
- ^238Pu excretion, Total Urine, Avg [3]: 24.00 percent recovered dose
- ^238Pu retention, GI Tract, Avg [3]: 1.23 percent recovered dose
- ^238Pu retention, Kidney, Avg [3]: 0.17 percent recovered dose
- ^238Pu retention, Liver, Avg [3]: 12.68 percent recovered dose
- ^238Pu retention, Soft Tissue, Avg [3]: 1.75 percent recovered dose
- ^238Pu retention, Total Body, Avg [3]: 35.89 percent recovered dose
- ^238Pu retention, Total Bone, Avg [3]: 20.06 percent recovered dose
- 238Pu percent increase in excretion, Total Excretion [3]: 162.02%
- 238Pu percent increase in excretion, Total Feces [3]: 225.83%
- 238Pu percent increase in excretion, Total Urine [3]: 110.04%
- ^238Pu percent tissue reduction, GI Tract [3]: 21.76%
- ^238Pu percent tissue reduction, Kidney [3]: 40.67%
- ^238Pu percent tissue reduction, Liver [3]: 43.47%
- ^238Pu percent tissue reduction, Soft Tissue [3]: 34.62%
- ^238Pu percent tissue reduction, Total Body [3]: 40.61%
- ^238Pu percent tissue reduction, Total Bone [3]: 40.06%
- ^238Pu retention, GI Tract, Avg [4]: 1.03 percent recovered dose
- ^238Pu retention, Kidney, Avg [4]: 0.15 percent recovered dose
- ^238Pu retention, Liver, Avg [4]: 9.46 percent recovered dose
- ^238Pu retention, Soft Tissue, Avg [4]: 2.20 percent recovered dose
- ^238Pu retention, Total Body, Avg [4]: 33.83 percent recovered dose
- ^238Pu retention, Total Bone, Avg [4]: 20.99 percent recovered dose
- ^238Pu percent tissue reduction, GI Trace [4]: 30.01%
- ^238Pu percent tissue reduction, Kidney [4]: 45.60%
- ^238Pu percent tissue reduction, Liver [4]: 48.32%
- ^238Pu percent tissue reduction, Soft Tissue [4]: 22.51%
- ^238Pu percent tissue reduction, Total Body [4]: 36.96%
- ^238Pu percent tissue reduction, Total Bone [4]: 30.34%
- ^238Pu excretion, Total Excretion, Avg [5]: 59.71 percent recovered dose
- ^238Pu excretion, Total Feces, Avg [5]: 34.14 percent recovered dose
- ^238Pu excretion, Total Urine, Avg [5]: 25.57 percent recovered dose
- ^238Pu retention, GI Tract, Avg [5]: 1.45 percent recovered dose
- ^238Pu retention, Kidney, Avg [5]: 0.18 percent recovered dose
- ^238Pu retention, Liver, Avg [5]: 15.12 percent recovered dose
- ^238Pu retention, Soft Tissue, Avg [5]: 2.41 percent recovered dose
- ^238Pu retention, Total Body, Avg [5]: 40.29 percent recovered dose
- ^238Pu retention, Total Bone, Avg [5]: 21.12 percent recovered dose
- 238Pu percent increase in excretion, Total Excretion [5]: 166.71%
- 238Pu percent increase in excretion, Total Feces [5]: 197.01%
- 238Pu percent increase in excretion, Total Urine [5]: 138.32%
- ^238Pu percent tissue reduction, GI Tract [5]: −2.24%
- ^238Pu percent tissue reduction, Kidney [5]: 39.84%
- ^238Pu percent tissue reduction, Liver [5]: 42.11%
- ^238Pu percent tissue reduction, Soft Tissue [5]: 19.73%
- ^238Pu percent tissue reduction, Total Body [5]: 37.23%
- ^238Pu percent tissue reduction, Total Bone [5]: 36.64%
- ^238Pu excretion, Total Excretion, Avg [6]: 66.17 percent recovered dose
- ^238Pu excretion, Total Feces, Avg [6]: 40.33 percent recovered dose
- ^238Pu excretion, Total Urine, Avg [6]: 25.84 percent recovered dose
- 238Pu percent increase in excretion, Total Excretion [6]: 142.80%
- 238Pu percent increase in excretion, Total Feces [6]: 180.35%
- 238Pu percent increase in excretion, Total Urine [6]: 107.78%
- ^238Pu excretion, Total Excretion, Avg [7]: 65.66 percent recovered dose
- ^238Pu excretion, Total Feces, Avg [7]: 40.53 percent recovered dose
- ^238Pu excretion, Total Urine, Avg [7]: 25.13 percent recovered dose
- 238Pu percent increase in excretion, Total Excretion [7]: 165.93%
- 238Pu percent increase in excretion, Total Feces [7]: 228.14%
- 238Pu percent increase in excretion, Total Urine [7]: 115.25%
- ^238Pu percent tissue reduction, GI Tract [7]: −3.93%
- ^238Pu percent tissue reduction, Kidney [7]: 11.13%
- ^238Pu percent tissue reduction, Liver [7]: 44.57%
- ^238Pu percent tissue reduction, Soft Tissue [7]: 17.40%
- ^238Pu percent tissue reduction, Total Body [7]: 43.17%
- ^238Pu percent tissue reduction, Total Bone [7]: 46.78%
- ^238Pu retention, GI Tract, Avg [8]: 0.75 percent recovered dose
- ^238Pu retention, Kidney, Avg [8]: 0.19 percent recovered dose
- ^238Pu retention, Liver, Avg [8]: 6.78 percent recovered dose
- ^238Pu retention, Soft Tissue, Avg [8]: 1.93 percent recovered dose
- ^238Pu retention, Total Body, Avg [8]: 27.67 percent recovered dose
- ^238Pu retention, Total Bone, Avg [8]: 18.02 percent recovered dose
- ^238Pu percent tissue reduction, GI Trace [8]: 49.06%
- ^238Pu percent tissue reduction, Kidney [8]: 32.19%
- ^238Pu percent tissue reduction, Liver [8]: 62.99%
- ^238Pu percent tissue reduction, Soft Tissue [8]: 32.01%
- ^238Pu percent tissue reduction, Total Body [8]: 48.44%
- ^238Pu percent tissue reduction, Total Bone [8]: 40.18%
- ^238Pu excretion, Total Excretion, Avg [9]: 72.33 percent recovered dose
- ^238Pu excretion, Total Feces, Avg [9]: 44.91 percent recovered dose
- ^238Pu excretion, Total Urine, Avg [9]: 27.43 percent recovered dose
- 238Pu percent increase in excretion, Total Excretion [9]: 156.10%
- 238Pu percent increase in excretion, Total Feces [9]: 200.32%
- 238Pu percent increase in excretion, Total Urine [9]: 114.39%
- ^238Pu retention, GI Tract, Avg [10]: 1.63 percent recovered dose
- ^238Pu retention, Kidney, Avg [10]: 0.25 percent recovered dose
- ^238Pu retention, Liver, Avg [10]: 12.44 percent recovered dose
- ^238Pu retention, Soft Tissue, Avg [10]: 2.22 percent recovered dose
- ^238Pu retention, Total Body, Avg [10]: 34.34 percent recovered dose
- ^238Pu retention, Total Bone, Avg [10]: 17.81 percent recovered dose
